# Test results reported in patent US20250186627A1, “RADIOLABELED COMPOUNDS TARGETING THE PROSTATE-SPECIFIC MEMBRANE ANTIGEN” (PROVINCIAL HEALTH SERVICES AUTHORITY, priority 2022, published 2025).
# *1 amine or outer side, *2 acyl side, *3 side chain or, on linkers, in order; H or OH if unused. Where a SMILES comes first, the peptide text is derived from it. [ ]: non-standard residue; d: D form. The star is where a group is joined. ξ: configuration not given here. ξLys(Nα-CO-ξAad) = O=C(O)CCCC(NC(=O)NC(CCCCN*)C(=O)O)C(=O)O; Butanoyl(4-(4-NO2Ph)) = O=C(CCCc1ccc([N+](=O)[O-])cc1)*; DOTA = O=C(O)CN1CCN(CC(=O)O)CCN(CC(=O)*)CCN(CC(=O)O)CC1; ξAla(9-anthryl) = NC(Cc1c2ccccc2cc2ccccc12)C(=O)O; X1 = O=C(C1CCC(CN[*:1])CC1)[*:2]; ξK = NCCCCC(N)C(=O)O
# System: NRG-mice bearing LNCaP tumors
# Assay: Biodistribution (and PET/SPECT imaging) in NRG-mice bearing LNCaP tumors
# Type: in vivo
# Conditions: for Biodistribution: Adrenal gland / Biodistribution: Blood / Biodistribution: Bone / Biodistribution: Brain / Biodistribution: Fat / Biodistribution: Heart / Biodistribution: Intestine / Biodistribution: LNCaP tumor / Biodistribution: Lacrimal gland / Biodistribution: Liver / Biodistribution: Lungs / Biodistribution: Muscle / Biodistribution: Pancreas / Biodistribution: Salivary gland / Biodistribution: Seminal gland / Biodistribution: Spleen / Biodistribution: Stomach / Biodistribution: Testes / Biodistribution: Thyroid / Biodistribution: Urine / Biodistribution: kidney: Avg
# Method: LNCaP cell line was obtained from ATCC (LNCaP clone FGC, CRL-1740). It was established from a metastatic site of left supraclavicular lymph node of human prostatic adenocarcinoma. Cells were cultured in PRMI 1640 medium supplemented with 10% FBS, penicillin (100 U/mL) and streptomycin (100 μg/mL) at 37° C. in a humidified incubator containing 5% CO2. Cells grown to 80-90% confluence were then washed with sterile phosphate-buffered saline (1×PBS pH 7.4) and trypsinization. The collected cells number was counted with a Hausser Scientific (Horsham, PA) Hemacytometer. Approximately 10 million LNCaP cells were inoculated into the left dorsal flank of immunocomprised NRG mice. The tumours were allowed to grow for 4-6 weeks and used for imaging and biodistribution studies when a volume of 200-600 mm^3 was reached.
# PET imaging experiments were conducted using Siemens Inveon micro PET/CT scanner. SPECT imaging experiments were conducted using an MILabs micro SPECT/CT scanner. Each tumor bearing mouse was injected 4-6 MBq of ^68Ga or 18.5 MBq of ^177Lu labeled tracer through the tail vein under anesthesia (2% isoflurane in oxygen). The mice were allowed to recover and roam freely in their cage. At pre-defined time point, the mice were sedated again with 2% isoflurane in oxygen inhalation and positioned in the scanner. A 10-min CT scan was conducted first for localization and attenuation correction after segmentation for reconstructing the PET or SPECT images. Then, a 10-min static PET imaging or a one hour (30 min×2 frames) of static SPECT scan was performed to determined uptake in tumor and other organs. The mice were kept warm by a heating pad during acquisition.
# For biodistribution studies, the mice were injected with the radiotracer as described above. The mice were anesthetized with 2% isoflurane inhalation, and euthanized by CO2 inhalation. Blood was withdrawn immediately from the heart, and the organs/tissues of interest were collected. The collected organs/tissues were weighed and counted using a Perkin Elmer (Waltham, MA) Wizard2 2480 gamma counter. The uptake in each organ/tissue was normalized to the injected dose (radioactivity) using a standard curve, and expressed as the percentage of the injected dose per gram of tissue (% ID/g).
structure (smiles),measurement,setting,value
O=C([O-])CN1CCN(CC(=O)[O-])CCN(CC(=O)NCCCCC(NC(=O)CNC(=O)CCCc2ccc([N+](=O)[O-])cc2)C(=O)NCC(=O)NCC2CCC(C(=O)NC(Cc3c4ccccc4cc4ccccc34)C(=O)NCCCCC(NC(=O)NC(CCCC(=O)O)C(=O)O)C(=O)O)CC2)CCN(CC(=O)[O-])CC1.[177Lu+3] (stereo not shown) [^177Lu-CCZ02017] ({Butanoyl(4-(4-NO2Ph))}-G[ξK](DOTA)G[X1][ξAla(9-anthryl)]-{ξLys(Nα-CO-ξAad)}),LNCaP tumor uptake compared to 177Lu-HTK03170,,substantially improved
same,Biodistribution: Adrenal gland,3 h p.i.,3.41 % ID/g
same,Biodistribution: Blood,3 h p.i.,14.17 % ID/g
same,Biodistribution: Bone,3 h p.i.,0.78 % ID/g
same,Biodistribution: Brain,3 h p.i.,0.24 % ID/g
same,Biodistribution: Fat,3 h p.i.,1.85 % ID/g
same,Biodistribution: Heart,3 h p.i.,3.24 % ID/g
same,Biodistribution: Intestine,3 h p.i.,1.03 % ID/g
same,Biodistribution: LNCaP tumor,3 h p.i.,39.27 % ID/g
same,Biodistribution: Lacrimal gland,3 h p.i.,0.20 % ID/g
same,Biodistribution: Liver,3 h p.i.,2.31 % ID/g
same,Biodistribution: Lungs,3 h p.i.,6.68 % ID/g
same,Biodistribution: Muscle,3 h p.i.,1.18 % ID/g
same,Biodistribution: Pancreas,3 h p.i.,2.27 % ID/g
same,Biodistribution: Salivary gland,3 h p.i.,2.43 % ID/g
same,Biodistribution: Seminal gland,3 h p.i.,0.93 % ID/g
same,Biodistribution: Spleen,3 h p.i.,2.25 % ID/g
same,Biodistribution: Stomach,3 h p.i.,1.55 % ID/g
same,Biodistribution: Testes,3 h p.i.,6.56 % ID/g
same,Biodistribution: Thyroid,3 h p.i.,2.87 % ID/g
same,Biodistribution: Urine,3 h p.i.,97.91 % ID/g
same,Biodistribution: kidney,3 h p.i.,17.31 % ID/g
same,Biodistribution: Adrenal gland,24 h p.i.,0.61 % ID/g
same,Biodistribution: Blood,24 h p.i.,0.61 % ID/g
same,Biodistribution: Bone,24 h p.i.,0.07 % ID/g
same,Biodistribution: Brain,24 h p.i.,0.03 % ID/g
same,Biodistribution: Fat,24 h p.i.,0.20 % ID/g
same,Biodistribution: Heart,24 h p.i.,0.24 % ID/g
same,Biodistribution: Intestine,24 h p.i.,0.13 % ID/g
same,Biodistribution: LNCaP tumor,24 h p.i.,89.90 % ID/g
same,Biodistribution: Lacrimal gland,24 h p.i.,0.04 % ID/g
same,Biodistribution: Liver,24 h p.i.,0.31 % ID/g
same,Biodistribution: Lungs,24 h p.i.,0.55 % ID/g
same,Biodistribution: Muscle,24 h p.i.,0.08 % ID/g
same,Biodistribution: Pancreas,24 h p.i.,0.11 % ID/g
same,Biodistribution: Salivary gland,24 h p.i.,0.35 % ID/g
same,Biodistribution: Seminal gland,24 h p.i.,0.07 % ID/g
same,Biodistribution: Spleen,24 h p.i.,0.35 % ID/g
same,Biodistribution: Stomach,24 h p.i.,0.15 % ID/g
same,Biodistribution: Testes,24 h p.i.,0.48 % ID/g
same,Biodistribution: Thyroid,24 h p.i.,0.40 % ID/g
same,Biodistribution: Urine,24 h p.i.,9.85 % ID/g
same,Biodistribution: kidney,24 h p.i.,5.58 % ID/g
same,Biodistribution: Adrenal gland,72 h p.i.,0.34 % ID/g
same,Biodistribution: Blood,72 h p.i.,0.07 % ID/g
same,Biodistribution: Bone,72 h p.i.,0.02 % ID/g
same,Biodistribution: Brain,72 h p.i.,0.01 % ID/g
same,Biodistribution: Fat,72 h p.i.,0.15 % ID/g
same,Biodistribution: Heart,72 h p.i.,0.10 % ID/g
same,Biodistribution: Intestine,72 h p.i.,0.04 % ID/g
same,Biodistribution: LNCaP tumor,72 h p.i.,70.84 % ID/g
same,Biodistribution: Lacrimal gland,72 h p.i.,0.01 % ID/g
same,Biodistribution: Liver,72 h p.i.,0.23 % ID/g
same,Biodistribution: Lungs,72 h p.i.,0.16 % ID/g
same,Biodistribution: Muscle,72 h p.i.,0.02 % ID/g
same,Biodistribution: Pancreas,72 h p.i.,0.04 % ID/g
same,Biodistribution: Salivary gland,72 h p.i.,0.14 % ID/g
same,Biodistribution: Seminal gland,72 h p.i.,0.03 % ID/g
same,Biodistribution: Spleen,72 h p.i.,0.38 % ID/g
same,Biodistribution: Stomach,72 h p.i.,0.04 % ID/g
same,Biodistribution: Testes,72 h p.i.,0.29 % ID/g
same,Biodistribution: Thyroid,72 h p.i.,0.16 % ID/g
same,Biodistribution: Urine,72 h p.i.,2.63 % ID/g
same,Biodistribution: kidney,72 h p.i.,3.21 % ID/g
same,Biodistribution: Adrenal gland,144 h p.i.,0.23 % ID/g
same,Biodistribution: Blood,144 h p.i.,0.01 % ID/g
same,Biodistribution: Bone,144 h p.i.,0.02 % ID/g
same,Biodistribution: Brain,144 h p.i.,0.01 % ID/g
same,Biodistribution: Fat,144 h p.i.,0.22 % ID/g
same,Biodistribution: Heart,144 h p.i.,0.04 % ID/g
same,Biodistribution: Intestine,144 h p.i.,0.01 % ID/g
same,Biodistribution: LNCaP tumor,144 h p.i.,116.43 % ID/g
same,Biodistribution: Lacrimal gland,144 h p.i.,0.00 % ID/g
same,Biodistribution: Liver,144 h p.i.,0.09 % ID/g
same,Biodistribution: Lungs,144 h p.i.,0.08 % ID/g
same,Biodistribution: Muscle,144 h p.i.,0.01 % ID/g
same,Biodistribution: Pancreas,144 h p.i.,0.01 % ID/g
same,Biodistribution: Salivary gland,144 h p.i.,0.05 % ID/g
same,Biodistribution: Seminal gland,144 h p.i.,0.01 % ID/g
same,Biodistribution: Spleen,144 h p.i.,0.37 % ID/g
same,Biodistribution: Stomach,144 h p.i.,0.02 % ID/g
same,Biodistribution: Testes,144 h p.i.,0.15 % ID/g
same,Biodistribution: Thyroid,144 h p.i.,0.11 % ID/g
same,Biodistribution: Urine,144 h p.i.,1.88 % ID/g
same,Biodistribution: kidney,144 h p.i.,1.98 % ID/g
same,Biodistribution: Adrenal gland,240 h p.i.,0.02 % ID/g
same,Biodistribution: Blood,240 h p.i.,0.00 % ID/g
same,Biodistribution: Bone,240 h p.i.,0.01 % ID/g
same,Biodistribution: Brain,240 h p.i.,0.00 % ID/g
same,Biodistribution: Fat,240 h p.i.,0.06 % ID/g
same,Biodistribution: Heart,240 h p.i.,0.01 % ID/g
same,Biodistribution: Intestine,240 h p.i.,0.01 % ID/g
same,Biodistribution: LNCaP tumor,240 h p.i.,95.45 % ID/g
same,Biodistribution: Lacrimal gland,240 h p.i.,0.00 % ID/g
same,Biodistribution: Liver,240 h p.i.,0.06 % ID/g
same,Biodistribution: Lungs,240 h p.i.,0.14 % ID/g
same,Biodistribution: Muscle,240 h p.i.,0.01 % ID/g
same,Biodistribution: Pancreas,240 h p.i.,0.00 % ID/g
same,Biodistribution: Salivary gland,240 h p.i.,0.01 % ID/g
same,Biodistribution: Seminal gland,240 h p.i.,0.00 % ID/g
same,Biodistribution: Spleen,240 h p.i.,0.50 % ID/g
same,Biodistribution: Stomach,240 h p.i.,0.01 % ID/g
same,Biodistribution: Testes,240 h p.i.,0.08 % ID/g
same,Biodistribution: Thyroid,240 h p.i.,0.03 % ID/g
same,Biodistribution: Urine,240 h p.i.,0.43 % ID/g
same,Biodistribution: kidney,240 h p.i.,0.46 % ID/g
